{"source": "patent US20210246439A1", "about": "“ENGINEERED BI-STABLE TOGGLE SWITCH AND USES THEREOF” (Massachusetts Institute of Technology, priority 2020, published 2021)", "molecules": {"B1": {"name": "DDe-DDe-Csy4: fusion protein of two DDe domains and Csy4, nucleotide sequence SEQ ID NO: 5 (protein)", "chain": "MSLALSLTADQMVSALLDAEPPILYSEYDPTRPFSEASMMGLLTNLADRELVHMINWAKRVPGFVDLALHDQVHLLECAWMEILMIGLVWRSMEHPGKLLFAPNLLLDRNQGKCVEGGVEIFDMLLATSSRFRMMNLQGEEFVCLKSIILLNSGVYTFLSSTLKSLEEKDHIHRVLDKITDTLIHLMAKAGLTLQQQHQRLAQLLLILSHIRHMSSKRMEHLYSMKCKNVVPLSDLLLEMLDAHRLMSLALSLTADQMVSALLDAEPPILYSEYDPTRPFSEASMMGLLTNLADRELVHMINWAKRVPGFVDLALHDQVHLLECAWMEILMIGLVWRSMEHPGKLLFAPNLLLDRNQGKCVEGGVEIFDMLLATSSRFRMMNLQGEEFVCLKSIILLNSGVYTFLSSTLKSLEEKDHIHRVLDKITDTLIHLMAKAGLTLQQQHQRLAQLLLILSHIRHMSSKRMEHLYSMKCKNVVPLSDLLLEMLDAHRLMDHYLDIRLRPDPEFPPAQLMSVLFGKLHQALVAQGGDRIGVSFPDLDESRSRLGERLRIHASADDLRALLARPWLEGLRDHLQFGEPAVVPHPTPYRQVSRVQAKSNPERLRRRLMRRHDLSEEEARKRIPDTVARALDLPFVTLRSQSTGQHFRLFIRHGPLQVTAEEGGFTCYGLSKGGFVPWF"}, "B2": {"name": "DDd-CasE: fusion protein of DDd domain and CasE, nucleotide sequence SEQ ID NO: 6 (protein)", "chain": "MYLSKIIIARAWSRDLYQLHQELWHLFPNRPDAARDFLFHVEKRNTPEGCHVLLQSAQMPVSTAVATVIKTKQVEFQLQVGVPLYFRLRANPIKTILDNQKRLDSKGNIKRCRVPLIKEAEQIAWLQRKLGNAARVEDVHPISERPQYFSGEGKNGKIQTVCFEGVLTINDAPALIDLLQQGIGPAKSMGCGLLSLAPLMISLIAALAVDYVIGMENAMPWNLPADLAWFKRNTLNKPVIMGRHTWESIGRPLPGRKNIILSSQPSTDDRVTWVKSVDEAIAACGDVPEIMVIGGGRVIEQFLPKAQKLYLTHIDAEVEGDTHFPDYEPDDWESVFSEFHDADAQNSHSYCFEILERR"}}, "key": {"[1]": {"tested_on": "engineered bi-stable toggle switch (CasE-PEST, Csy4-PEST, DDd-CasE, DDe-DDe-Csy4) in HEK293 cells", "test": "Toggle switch with DDd-CasE and DDe-DDe-Csy4 in transfected HEK293 cells, small-molecule control, flow cytometry of mKO2/eYFP", "assay_type": "cell-based, human", "method": "Output fluorescent protein genes may also contain PERSIST activation domains to decrease expression in the OFF state. […] Further, HEK293 cells were transfected with CasE-PEST, Csy4-PEST, DDd-CasE and DDe-DDe-Csy4 transiently and cultured in the absence of small molecule for 24 hours."}, "[2]": {"tested_on": "CasE target hairpin containing a theophylline responsive aptamer", "test": "Proof of concept: CasE target hairpin with theophylline responsive aptamer 5' of eYFP, co-delivered with CasE", "assay_type": "cell-based, human", "settings": "HEK293 cells, versus absence of theophylline", "excerpt": "Alternatively, the engineered bi-stable toggle switch described in Example 1 can be designed to be able to respond to different small molecules to switch the system between different states. In this system, each of the endoRNAse target sites can include a small molecule-response aptamers. Binding of the small molecule to the aptamer stabilizes a secondary structure in the aptamer RNA that blocks the endoRNAse from cleaving its recognition hairpin. As illustrated by FIG. 4A, the CRISPR-endoRNAse recognition hairpin contains an aptamer sequence capable of binding to a small molecule. In the absence of the small molecule, the endoRNAse is able to cleave the recognition hairpin; however, the addition of the small molecule to the system induces a conformational change of the endoRNAse target hairpin, and such conformational change renders the endoRNAse incapable of binding and cleaving its target hairpin. […] In this experiment, a CasE target hairpin containing a theophylline responsive aptamer was placed 5′ of an eYFP coding sequence in an eYFP-expressing construct. This eYFP-expressing construct was co-delivered to HEK293 cells with another construct expressing CasE."}, "[3]": {"tested_on": "engineered bi-stable motif", "test": "Screening of promoter and degradation domain combinations with Csy4 on the bi-stable motif (polytransfection, eYFP/TagBFP)", "assay_type": "cell-based", "method": "Csy4 was first selected to be fused with either one copy or two copies of DDd domain or DDe domain respectively: DDe-Csy4, DDe-DDe-Csy4, DDd-Csy4, and DDd-DDd-Csy4. Various promoters (e.g., phEF1α, pUbc, and pPh1f) were used to drive the expression of the Csy4 or Csy4-degradation domain fusion proteins. pPh1f promoters were tested in the presence of Gal4-NLS-VP64. As a result, the following constructs were generated: phEF1α-Csy4, pUbc-DDd-Csy4, pUbc-DDd-DDd-Csy4, pPh1f-DDd-DDd-Csy4, pPh1f-DDd-Csy4-PEST, pPh1f-DDe-Csy4, pUbc-DDe-Csy4, pUbc-DDe-Csy4-PEST, pPh1f-DDe-DDe-Csy4, pUbc-DDe-DDe-Csy4, and pUbc-DDe-DDe-Csy4-PEST. Each of the constructs and the engineered bi-stable toggle switch described in Example 1 were delivered to the cells by polytransfection (Gam et al, A ‘poly-transfection’ method for rapid, one-pot characterization and optimization of genetic systems, Nucleic Acids Research, Volume 47, Issue 18, 10 Oct. 2019, Page e106). The output molecules were eYFP and TagBFP. The system was designed such that Csy4 represses eYFP and CasE represses TagBFP. A cell in the CasE-high state expressed eYFP and a cell in the Csy4-high state expresses TagBFP. The ratio between CasE to Csy4 was set at 6.7 times as much CasE as Csy4, biasing the system towards a CasE-high state in the absence of additional proteins. […]"}, "[4]": {"tested_on": "engineered bi-stable motif", "test": "Screening of DDd-CasE fusion proteins on the bi-stable motif (polytransfection, eYFP/TagBFP)", "assay_type": "cell-based", "settings": "hEF1α promoter, among CasE-DDd fusions screened", "method": "Further, fusion proteins between CasE and one or more DDd domains were screened similarly as described above. In this experiment, only hEF1α promoter was tested. Each of the construct and the engineered bi-stable toggle switch described in Example 1 were delivered to the cells by polytransfection. The output molecules were eYFP and TagBFP. The system was designed such that Csy4 represses eYFP and CasE represses TagBFP. A cell in the CasE-high state expressed eYFP and a cell in the Csy4-high state expresses TagBFP. The ratio between CasE to Csy4 was set at 1.6 times as much Csy4 as CasE, biasing the system towards a Csy4-high state in the absence of additional proteins."}}}
{"molecule": "4-hydroxytamoxifen [4-OHT]", "values": [{"measurement": "state the bi-stable toggle switch stabilizes on", "setting": "[1]; small molecule in the system for 24 hours", "result": "Csy4-high/CasE-low state (mKO2-high/eYFP-low)"}]}
{"molecule": "COc1cc(Cc2cnc(N)nc2N)cc(OC)c1OC", "note": "[TMP, trimethoprim]", "values": [{"measurement": "reporter expression after small molecule addition", "setting": "[1]; 10 μM added at 24 hrs and maintained for 48 hrs, roughly equal mKO2 and eYFP before addition", "result": "higher frequencies of eYFP expression than mKO2 expression"}]}
{"molecule": "Cn1c(=O)c2[nH]cnc2n(C)c1=O", "note": "[theophylline]", "values": [{"measurement": "eYFP expression in the presence of theophylline (repression by CasE lifted)", "setting": "[2]", "result": "two-folds increase"}]}
{"molecule": "B1", "values": [{"measurement": "capability of (i) being degraded in the absence of 4-OHT and (ii) cleaving RNA efficiently in the presence of 4-OHT", "setting": "[3]; among Csy4 fusion constructs screened", "result": "best capability"}, {"measurement": "fraction of cells in the TagBFP high state with versus without 4-OHT", "setting": "[3]; regardless of promoter, especially in higher ratio bins", "result": "higher fraction of cells in the TagBFP high state when 4-OHT is present than without"}]}
{"molecule": "B2", "values": [{"measurement": "being degraded in the absence of TMP and cleaving RNA in the presence of TMP", "setting": "[4]", "result": "better at (i) being degraded in the absence of TMP; and (ii) cleaving RNA efficiently in the presence of TMP"}]}
